Measured values published in PubChem BioAssay (NCI).
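Method: 48-hour compound exposure of cells in 96-well plates, five concentrations, linear interpolation of endpoints. GI50 marks 50% less growth.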

Experiments:
Test in all cases: DTP human tumour cell line panel, 48 h; in the data active = GI50 below about 0.43 µM; inactive = the rest
RXF 393 renal = test system: RXF 393 renal
SNB-75 CNS = test system: SNB-75 CNS
SK-MEL-2 melanoma = test system: SK-MEL-2 melanoma

Measured: GI50

ClCC[N+]12CC[N+](CCCl)(CC1)C2 (tested in a mixture with another compound)
inactive: RXF 393 renal 85.4 µM | SNB-75 CNS 58.6 µM | SK-MEL-2 melanoma 43.2 µM
